{"source": "patent US20150157588A1", "about": "“Pharmaceutical Composition Comprising Amino-Phenyl-Acetic Acid Octadec-(Z)-9-enyl Ester and Use Thereof for Treating Tumors” (Yeda Research and Development Co., Ltd., priority 2012, published 2015)", "key": {"[1]": {"system": "freshly isolated mouse B cells", "experiment": "Spontaneous apoptosis by hypo-diploid nuclei PI staining, primary B cells", "type": "cell-based", "details": "1 or 100 μg/ml in ethanol solution", "procedure": "Apoptosis was measured by FACS analysis with a hypo-diploid nuclei propidium iodide (PI) staining of freshly isolated mouse B cells treated with amino-phenyl-acetic acid octadec-(Z)-9-enyl ester in ethanol solution. FIGS. 5A-5C: L-12 cells treated with 0, 1 or 100 μg/ml of amino-phenyl-acetic acid octadec-(Z)-9-enyl ester, respectively; FIGS. 5D-5F: L-12 cells treated with 0, 1 or 100 μg/ml of the control reagent 4-methyl-piperazino-acetic acid ethyl ester, respectively; and FIGS. 5G-5I: L-12 cells treated with an ethanol volume corresponding to 0, 1 or to 100 μg/ml of amino-phenyl-acetic acid octadec-(Z)-9-enyl ester in ethanol solution, respectively.\n(§1) B or T-cell apoptosis was detected by flow cytometry. […] The cells were then subjected to flow cytometric analysis; for each sample 10,000 were collected and cell-cycle distribution was analyzed according to relative DNA content (PI staining). […] The cells were then collected, stained by APO-DIRECT TUNNEL kit (Phnxflow, CITY, Calif., USA); mitochondrial potential was measured by DePsipher (R&D Systems, Minneapolis, Minn.) according to the manufacturer's procedure. Intracellular caspase activity was measured by Apostat kit (R&D Systems), according to the manufacturer's procedure. The cells were analyzed by Flow cytometry using FACSort (Becton Dickinson) and CellQuest software (Becton Dickinson). […]"}, "[2]": {"system": "p53 expressing L-12 mouse B cell line", "experiment": "Apoptosis by hypo-diploid nuclei PI staining, transformed B cell line", "type": "cell-based", "details": "10 or 100 μg per ml in 5% ethanol solution, 48 h", "procedure": "Apoptosis was measured by FACS analysis with a hypo-diploid nuclei propidium iodide (PI) staining of an amino-phenyl-acetic acid octadec-(Z)-9-enyl ester treated p53 expressing L-12 mouse B cell line. FIGS. 4A-4C: L-12 cells treated with 0, 10 or 100 μg/ml of amino-phenyl-acetic acid octadec-(Z)-9-enyl ester in ethanol solution, respectively; FIGS. 4D-4F: L-12 cells treated with 0, 10 or 100 μg/ml of the control reagent 4-methyl-piperazino-acetic acid ethyl ester in ethanol solution, respectively; and FIGS. 4G-4I: L-12 cells treated with an ethanol volume corresponding to 0, 10 or 100 μg/ml of amino-phenyl-acetic acid octadec-(Z)-9-enyl ester, respectively. FL2-A is the measure of fluorescence. […]\nas §1"}}}
{"smiles": "CCOC(=O)CN1CCN(C)CC1", "note": "[4-methyl-piperazino-acetic acid ethyl ester, reference compound]", "values": [{"measurement": "spontaneous apoptosis / cell-cycle of primary B cells", "setting": "[1]", "result": "had no effect"}, {"measurement": "apoptosis / cell cycle (cells in sub-GO state)", "setting": "[2]", "result": "had no effect"}]}
